Key:
[1] = test system: human acute myelocytic leukemia cell line MV4-11; test: Cytotoxic effect, human acute myelocytic leukemia cell line MV4-11; type: cell-based; details: Opti-MEM reduced-serum medium used for compound of formula (I), read-out: IC50 (50% inhibition percentage)
Description: (§1) Concentration dependence of the cytotoxic effect of the compound of formula (I) and the compound of formula (II) was examined as described below.

[2] = test system: human lung cancer cell line A549; test: Cytotoxic effect, human lung cancer cell line A549; details: A549, read-out: IC50 (50% inhibition percentage)
Description: as §1

BAX = BAX expression in cytoplasm and mitochondrial fractions of MV4-11 cells; type: cell-based, human; details: (I) 0.1 and 1 μM, (II) 0.01, 0.1 and 1 μM, incubation five hours
Procedure: Human acute myelocytic leukemia cells MV4-11 were plated on a culture medium and cultured overnight. Then, the compound of formula (I) was added at concentrations of 0.1 μM and 1 μM, and the compound of formula (II) was added at concentrations of 0.01 μM, 0.1 μM, and 1 μM. After incubation for five hours, a cytoplasm fraction and a mitochondrial fraction were extracted and BAX expression was examined.

[3] = test system: human pancreatic cancer cell line PANC-1; test: Cytotoxic effect, human pancreatic cancer cell line PANC-1; details: PANC-1, read-out: IC50 (50% inhibition percentage)
Description: as §1

[4] = test system: human histiocytic lymphoma cell line U937; test: Mouse model of human histiocytic lymphoma (U937), subcutaneous transplant; type: in vivo; details: U937 s.c. mice; (II) i.v. weekly x2 at 200 or 300 mg/kg; (I) oral daily two weeks 100 mg/kg
Procedure: The effects of the compounds on suppressing tumor growth were compared in three groups by using mice models which were generated by transplanting a human histiocytic lymphoma cell line U937 subcutaneously into mice. The three groups were the following: a control group; a group whose mice received the compound of formula (II) intravenously at a frequency of once a week for two weeks at a dose of 200 mg/kg or 300 mg/kg; and a group whose mice received the compound of formula (I) orally every day for two weeks at a dose of 100 mg/kg.

[5] = test system: human acute myelocytic leukemia cell line OCI-AML-2; test: Mouse model of human acute myelocytic leukemia (OCI-AML-2), subcutaneous transplant; type: in vivo; details: OCI-AML-2 s.c. mice; (II) i.v. weekly x2 at 100-300 mg/kg; (I) oral daily two weeks 100 mg/kg
Procedure: The effects of the compounds on suppressing tumor growth were compared in mice groups by using mice models which were generated by transplanting a human acute myelocytic leukemia cell line OCI-AML-2 subcutaneously into mice. The mice groups were the following: a control group; groups whose mice received the compound of formula (II) intravenously once every week for two weeks at a dose of 100 mg/kg, 200 mg/kg, or 300 mg/kg; and a group whose mice received the compound of formula (I) orally every day for two weeks at a dose of 100 mg/kg (see FIG. 5(1)).

caspase = test: Caspase activity of MV4-11 cells; type: cell-based, human
Procedure: According to the above described Pharmaceutical Interview Form, cytochrome C that flowed out from mitochondria into cytoplasm activates caspase, thereby inducing apoptosis. Therefore, human acute myelocytic leukemia cells MV4-11 were plated on a culture medium and cultured overnight. Then, the compound of formula (I) was added at concentrations of 1 pM, 0.01 nM, 0.1 nM, 1 nM, 0.01 μM, 0.1 μM, and 1 μM; and the compound of formula (II) was added at concentrations of 1 pM, 0.01 nM, 0.1 nM, 1 nM, 0.01 μM, and 0.1 μM. After incubation for 24 hours, the culture medium was collected and caspase activity was examined by a conventional known technique.

[6] = Solubility in water of compounds; type: physicochemical; details: (I): 10 mg/mL in physiological saline containing 0.5% CMC, sonication, (II): 10 and 20 mg/mL in physiological saline at 40° C. to 50° C.
[7] = human protein; cited from earlier work
cytochrome C = test: Cytochrome C release from mitochondria into cytoplasm in MV4-11 cells; type: cell-based, human; details: (I) 0.1 and 1 μM, (II) 0.01, 0.1 and 1 μM, incubation five hours
Procedure: In the above described Pharmaceutical Interview Form, “cytochrome C” that flowed out from mitochondria into cytoplasm is described as “pro-apoptotic protein.” Therefore, human acute myelocytic leukemia cells MV4-11 were plated on a culture medium and cultured overnight. Then, the compound of formula (I) was added at concentrations of 0.1 μM and 1 μM, and the compound of formula (II) was added at concentrations of 0.01 μM, 0.1 μM, and 1 μM. After incubation for five hours, a cytoplasm fraction and a mitochondrial fraction were extracted and cytochrome C release was examined.

CC1(C)CCC(CN2CCN(c3ccc(C(=O)NS(=O)(=O)c4ccc(NCC5CCOCC5)c([N+](=O)[O-])c4)c(Oc4cnc5[nH]ccc5c4)c3)CC2)=C(c2ccc(Cl)cc2)C1 [compound of formula (I), Venetoclax]
IC50 [1]: 160 nM
IC50 [2]: 990 nM
BAX in the cytoplasm fraction (BAX): concentration-dependent decrease of BAX in the cytoplasm fraction
IC50 [3]: 990 nM
effect of suppressing tumor growth [4]: no effect of suppressing growth of U937
effect on suppressing weight change [5]: suppressed weight change
caspase activity, concentration dependence (caspase; 1 pM to 1 μM (I), 1 pM to 0.1 μM (II), incubation 24 hours): increased depending on the concentration
caspase activity at 0.1 μM, (I) versus (II) (caspase; concentration in terms of Venetoclax 0.1 μM, 24 hours): exactly the same caspase activity
state of preparation in aqueous vehicle [6]: uniform bright yellow opaque suspension
binding percentage to protein [7]: ≥ 99.9%
amount of cytochrome C released from mitochondria into cytoplasm (cytochrome C): increased depending on the concentration
